By melting point is commonly meant the temperature of the solid-liquid transition. What is called IC50 is the concentration needed to halve the response being measured.

Consider nine molecules from patent publication US10590056B2, “ERR modulators and uses thereof” (CITY OF HOPE, priority 2017, dated 2020).

SMILES strings stand for the structures. “Also recorded” adds a separate entry of the source. A value given as a limit tells only on which side of the number the result lay.

For data set [1], the target named is T1, human ERRβ (Homo sapiens, UniProt O95718).
T1 construct: expressed in transfected cells; host or cells: CV-1 cells, cytomegalovirus-driven expression vectors
T1 sequence (O95718 208-432 limits assumed): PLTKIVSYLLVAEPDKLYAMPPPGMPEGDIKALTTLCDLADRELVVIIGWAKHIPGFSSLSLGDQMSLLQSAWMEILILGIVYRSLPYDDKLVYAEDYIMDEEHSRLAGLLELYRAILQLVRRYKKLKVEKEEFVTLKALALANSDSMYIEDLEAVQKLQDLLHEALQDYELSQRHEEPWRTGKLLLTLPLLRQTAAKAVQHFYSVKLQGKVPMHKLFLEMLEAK
The experiment in a line: GAL4 DBD-ERRβ LBD cotransfection luciferase reporter assay in CV-1 cells. The note with it: for identified as (inverse agonist class / selectivity): ERRα, ERRβ, ERRγ transactivation panel; for activity on ERRβ, in words: cell-based cotransfection assay. It is filed as cell-based. Here is the method: (§1) To assess the functional transcriptional activity of these compounds, cell-based assays using chimeric receptor Gal4 DNA-binding domain (DBD)-NR ligand binding domain cotransfection assay (LBDs of ERRα, ERRγ, and ERRβ) were performed. As an initial screen to determine the ERRγ and ERRβ inhibitory activity and selectivity, all compounds were evaluated for in vitro potency and selectivity by transfection testing, using CV-1 cells transfected with human and mouse ERRs. MH100×4 is a luciferase reporter with four copies of a GAL4 UASG response element, where GAL-I refers to the ligand-binding domain of the indicated receptor fused to the C-terminus of the GAL4 DNA-binding domain. Assays were performed using a Biomek automated workstation in which the genes for the nuclear receptor, as well as a plasmid containing a response element upstream of a luciferase cDNA, are transfected into CV-1 cells. Compounds were evaluated for their ability to inhibit human ERRs at 0.03, 0.1, 0.5, 1, 2.5, 3, and 10 μM test concentrations. […] Z-4-OHT used as a known ERRγ and ERRβ inverse agonist to compare the constitutive activity of unliganded ERRγ and ERRβ.
(§2) Cell culture. CV-1 cells were grown in Dulbecco's modified Eagle's medium supplemented with 10% resin charcoalstripped fetal bovine serum, 50 U/ml penicillin G, and 50 μg/ml streptomycin sulfate (DMEM-FBS) at 37° C. in 5% CO2. One day prior to transfection, cells were plated to 50%-80% confluence using phenol red free DMEM-FBS. The adenoviral construct, Ad-GFP and Ad-ERRα have been described.^55 Propagation of recombinant adenovirus was performed in 293 cells as described.^11
(§3) Cell based transactivation assays were performed in CV-1 cells as described.^49 ERR activity was assayed with a GAL4 reporter construct and fusion proteins containing the ligand binding domains of human ERRα, human ERRβ and mouse ERRγ linked to the DNA binding domain of yeast GAL4. Human ERα and ERβ were examined as full-length proteins using an estrogen receptor responsive reporter construct. Reporter constructs (300 ng/10^5 cells) and cytomegalovirus-driven expression vectors (20-50 ng/10^5 cells) were added as indicated along with CMX-β-gal (500 ng/10^5 cells) as an internal control. Cells were transiently transfected by Lipofectamine as described.^56 Cells were incubated with DNA complexed liposomes for 2 hours and subsequently treated for approximately 45 hr with phenol red free DMEM FBS containing the indicated compounds. After exposure to ligand, the cells were harvested and assayed for luciferase and β-galactosidase activity. […] Fold activation is reported.
(Reporter assays use an easily measured gene product as a stand-in for the process of interest.)

Data set [2] addresses T2, human ERRα (Homo sapiens, UniProt P11474).
T2 construct: expressed in transfected cells; host or cells: CV-1 cells, cytomegalovirus-driven expression vectors
T2 sequence (P11474 193-421 limits assumed): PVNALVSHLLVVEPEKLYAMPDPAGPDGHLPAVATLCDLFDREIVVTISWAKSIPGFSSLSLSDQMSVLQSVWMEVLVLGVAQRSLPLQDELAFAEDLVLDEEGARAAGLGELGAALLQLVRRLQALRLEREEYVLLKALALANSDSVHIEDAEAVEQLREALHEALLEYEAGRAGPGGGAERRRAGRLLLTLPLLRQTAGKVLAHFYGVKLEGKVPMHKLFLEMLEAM
The experiment in a line: GAL4 DBD-ERRα LBD cotransfection luciferase reporter assay in CV-1 cells. It is filed as cell-based. As to conditions: for IC50: CV-1 cells co-transfected with reporter and expression vectors, human ERRα LBD; for activity on ERRα, in words: cell-based screening; for effect on ERRα transcriptional activity: up to 3 μM. As for the experimental part: as §1, §2, §3

In data set [3] the target is T3, mouse ERRγ (Mus musculus, UniProt P62509).
T3 construct: expressed in transfected cells; host or cells: CV-1 cells, cytomegalovirus-driven expression vectors
T3 sequence (P62509 233-457 limits assumed): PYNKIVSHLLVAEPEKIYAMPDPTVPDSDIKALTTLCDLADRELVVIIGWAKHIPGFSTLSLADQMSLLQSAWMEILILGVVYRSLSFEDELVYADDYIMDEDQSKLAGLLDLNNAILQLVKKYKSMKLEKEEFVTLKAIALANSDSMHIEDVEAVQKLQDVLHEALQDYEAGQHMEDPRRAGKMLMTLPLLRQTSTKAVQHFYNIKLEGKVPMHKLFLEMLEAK
Briefly: GAL4 DBD-ERRγ LBD cotransfection luciferase reporter assay in CV-1 cells. It is filed as cell-based. As to conditions: for IC50: CV-1 cells co-transfected with reporter and expression vectors, mouse ERRγ LBD; for activity on ERRγ, in words: cell-based cotransfection assay, 1g, 1h: at the higher dose; for effect on ERRγ transcriptional activity: up to 3 μM. Here is the method: as §1, §2, §3

For data set [4], the target named is T4, Human ERα (Homo sapiens, UniProt P03372).
T4 construct: Human ERα and ERβ were examined as full-length proteins using an estrogen receptor responsive reporter construct; expressed in transfected cells; host or cells: CV-1 cells, cytomegalovirus-driven expression vectors
T4 sequence (P03372 1-595): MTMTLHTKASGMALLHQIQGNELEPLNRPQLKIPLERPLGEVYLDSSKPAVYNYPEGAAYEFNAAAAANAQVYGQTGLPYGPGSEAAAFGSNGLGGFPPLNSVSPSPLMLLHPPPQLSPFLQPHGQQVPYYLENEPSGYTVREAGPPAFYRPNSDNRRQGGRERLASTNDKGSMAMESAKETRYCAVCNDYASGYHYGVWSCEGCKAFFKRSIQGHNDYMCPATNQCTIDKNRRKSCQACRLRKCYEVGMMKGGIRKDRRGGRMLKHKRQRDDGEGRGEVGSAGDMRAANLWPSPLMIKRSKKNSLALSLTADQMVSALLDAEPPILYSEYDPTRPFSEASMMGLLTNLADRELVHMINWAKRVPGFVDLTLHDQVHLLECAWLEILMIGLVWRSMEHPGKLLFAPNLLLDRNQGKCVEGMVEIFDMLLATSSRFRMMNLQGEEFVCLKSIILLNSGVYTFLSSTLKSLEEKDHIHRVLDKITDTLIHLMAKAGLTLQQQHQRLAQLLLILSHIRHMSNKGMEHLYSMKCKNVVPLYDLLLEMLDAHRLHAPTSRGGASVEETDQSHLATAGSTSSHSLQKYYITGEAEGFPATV
The experiment in a line: Full-length ERα, estrogen receptor responsive reporter assay in CV-1 cells. The class given is cell-based. As to conditions: up to 3 μM. As for the experimental part:
(§4) Cell based transactivation assays were performed in CV-1 cells as described.^49 ERR activity was assayed with a GAL4 reporter construct and fusion proteins containing the ligand binding domains of human ERRα, human ERRβ and mouse ERRγ linked to the DNA binding domain of yeast GAL4. Human ERα and ERβ were examined as full-length proteins using an estrogen receptor responsive reporter construct. Reporter constructs (300 ng/10^5 cells) and cytomegalovirus-driven expression vectors (20-50 ng/10^5 cells) were added as indicated along with CMX-β-gal (500 ng/10^5 cells) as an internal control. Cells were transiently transfected by Lipofectamine as described.^56 Cells were incubated with DNA complexed liposomes for 2 hours and subsequently treated for approximately 45 hr with phenol red free DMEM FBS containing the indicated compounds. After exposure to ligand, the cells were harvested and assayed for luciferase and β-galactosidase activity. All points were assayed in triplicate and varied by less than 15%. Each experiment was repeated three or more times with similar results. Fold activation is reported.

The target of data set [5] is T5, Human ERβ (Homo sapiens, UniProt Q92731).
T5 construct: Human ERα and ERβ were examined as full-length proteins using an estrogen receptor responsive reporter construct; expressed in transfected cells; host or cells: CV-1 cells, cytomegalovirus-driven expression vectors
Briefly: Full-length ERβ, estrogen receptor responsive reporter assay in CV-1 cells. It is filed as cell-based. As to conditions: up to 3 μM. Here is the method:
as §4

In data set [6] the test system is ER. As to conditions: % of the affinity of the Z isomer of 4-OHT; cited from earlier work.
Where [7] appears, read: CV-1 cells co-transfected with reporter and expression vectors, human ERRβ LBD.

T5 sequence (Q92731 whole entry): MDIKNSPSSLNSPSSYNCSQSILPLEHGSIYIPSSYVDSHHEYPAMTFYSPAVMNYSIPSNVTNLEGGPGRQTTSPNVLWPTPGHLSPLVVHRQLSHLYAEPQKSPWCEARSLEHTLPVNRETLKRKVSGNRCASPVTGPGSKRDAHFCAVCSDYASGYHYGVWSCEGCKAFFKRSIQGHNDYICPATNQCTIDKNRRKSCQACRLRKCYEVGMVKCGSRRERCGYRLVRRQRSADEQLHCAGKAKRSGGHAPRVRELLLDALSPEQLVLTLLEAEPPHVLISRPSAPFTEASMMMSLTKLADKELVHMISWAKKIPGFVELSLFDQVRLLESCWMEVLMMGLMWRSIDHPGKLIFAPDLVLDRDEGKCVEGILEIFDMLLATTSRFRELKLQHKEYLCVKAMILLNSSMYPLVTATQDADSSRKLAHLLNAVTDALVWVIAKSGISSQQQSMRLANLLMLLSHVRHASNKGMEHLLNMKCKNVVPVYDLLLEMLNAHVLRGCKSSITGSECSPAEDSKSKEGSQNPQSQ

For `CCCC(=C(c1ccc(O)cc1)c1ccc(O)cc1)c1ccccc1` [Compound 1b, 1,1-Bis (4-hydroxyphenyl)-2-phenylpent-1-ene], the melting point was 192.7 °C.

In data set [1] (setting [7]), `COC(=O)CCC(=C(c1ccc(O)cc1)c1ccc(O)cc1)c1ccccc1` [Compound 1g, 5,5-Bis (4-hydroxyphenyl)-4-phenyl-pent-4-enoic acid methyl ester] came in with a 50% inhibitory concentration (IC50) of 600 nM. In addition, the “identified as (inverse agonist class / selectivity)” value in data set [1] was “selective inverse agonists for the ERRβ”. Also, in data set [2], the IC50 was over 10000 nM and the “activity on ERRα, in words” value is “not active”. In addition, in data set [3], the concentration for half-maximal inhibition (IC50) is 6500 nM and the “activity on ERRγ, in words” value was “not active”.

Consider `COC(=O)C(C)CC(=C(c1ccc(O)cc1)c1ccc(O)cc1)c1ccccc1` (stereo not shown) [Compound 1h, 5,5-Bis (4-hydroxyphenyl)-2-methyl-4-phenyl-pent-4-enoic acid methyl ester], for which the IC50 is 300 nM in data set [1] (setting [7]), over 10000 nM in data set [2] and 5500 nM in data set [3]. The “identified as (inverse agonist class / selectivity)” value in data set [1] is on record as “selective inverse agonists for the ERRβ”. Also, in data set [2], the “activity on ERRα, in words” value is given as “not active”. Also, the “activity on ERRγ, in words” value in data set [3] is “not active”.

As for `CC(C)/C(=C(\c1ccc(O)cc1)c1ccc(OCCN(C)C)cc1)c1ccccc1` [Compound 3a, (Z)-4-[1-(4-Dimethylaminoethoxy-phenyl)-3-methyl-2-phenyl-but-1-enyl]-phenol], the IC50 is 210 nM in data set [1] (setting [7]), over 10000 nM in data set [2] and 290 nM in data set [3]. Moreover, the “identified as (inverse agonist class / selectivity)” value in data set [1] was “ERRβ and ERRγ inverse agonists”. Further, in data set [1] (compared to Z-4-OHT), the “fold greater potency than Z-4-OHT on ERRβ” value is given as 3 fold. Further, in data set [3] (compared to Z-4-OHT), the “fold greater potency than Z-4-OHT on ERRγ” value amounted to 3 fold.

Regarding `COC(=O)CC/C(=C(\c1ccc(O)cc1)c1ccc(OCCN(C)C)cc1)c1ccccc1` [Compound 3g, (Z)-5-[4-(2-Dimethylamino-ethoxy)-phenyl]-5-(4-hydroxyphenyl)-4-phenyl-pent-4-enoic acid methyl ester], the “effect on ERα transcriptional activity” value in data set [4] is reported as “no effect”. Further, the IC50 in data set [1] (setting [7]) was 350 nM; in data set [2] it was over 10000 nM; in data set [3] it was 3500 nM. Besides, in data set [5], the “effect on ERβ transcriptional activity” value is “no effect”. For the same molecule, the “effect on ERRα transcriptional activity” value in data set [2] is on record as “no effect”. The “effect on ERRγ transcriptional activity” value in data set [3] is given as “no effect”.

For the molecule `COC(=O)C(C)C/C(=C(\c1ccc(O)cc1)c1ccc(OCCN(C)C)cc1)c1ccccc1` (stereo not shown) [Compound 3h, (Z)-5-[4-(2-Dimethylamino-ethoxy)-phenyl]-5-(4-hydroxyphenyl)-2-methyl-4-phenyl-pent-4-enoic acid methyl ester], in data set [4], the “effect on ERα transcriptional activity” value is “no effect”. Also, the “identified as (inverse agonist class / selectivity)” value in data set [1] is listed as “selective inverse agonist for the ERRβ; also recorded: ERRβ inverse agonists”. Moreover, the IC50 in data set [1] (cell-based transactivation in CV-1 cells) is 50 nM. Further, the “effect on ERβ transcriptional activity” value in data set [5] is given as “no effect”. Further, in data set [2], the IC50 is over 10000 nM and the “effect on ERRα transcriptional activity” value is reported as “no effect”. Further, in data set [3], 2780 nM corresponded to half-maximal inhibition (IC50) and the “effect on ERRγ transcriptional activity” value is “no effect”.

Consider `CC(CO)C/C(=C(\c1ccc(O)cc1)c1ccc(OCCN(C)C)cc1)c1ccccc1` (stereo not shown) [Compound 3n, (Z)-4-{1-[4-(2-Dimethylamino-ethoxy)-phenyl]-5-hydroxy-4-methyl-2-phenyl-pent-1-enyl}-phenol], for which the half-maximal inhibitory concentration (IC50) in data set [1] (setting [7]) is 2250 nM; in data set [2], over 10000 nM; in data set [3], 2500 nM. Further, the “identified as (inverse agonist class / selectivity)” value in data set [1] was “ERRβ and ERRγ inverse agonists”.

As to `CC/C(=C(/c1ccc(O)cc1)c1ccc(OCCN(C)C)cc1)c1ccccc1` [Compound E-4-OHT, reference compound], the “affinity for the ER relative to the Z isomer” value in data set [6] is listed as “about 5%”. In addition, in data set [1], the “activity on ERRβ, in words” value is listed as “much less active”. The “activity on ERRγ, in words” value in data set [3] is listed as “much less active”.

Take `CC/C(=C(\c1ccc(O)cc1)c1ccc(OCCN(C)C)cc1)c1ccccc1` [Compound Z-4-OHT, reference compound]: the figures for the IC50 in data set [1] (setting [7]), in data set [2] and in data set [3] were 650 nM, over 10000 nM and 600 nM, respectively. Also, the “activity on ERRβ, in words” value in data set [1] was “has the required activity; also recorded: more potent than E-4-OHT”. The “activity on ERRγ, in words” value in data set [3] is listed as “has the required activity; also recorded: more potent than E-4-OHT”.
